Columns and labels:
Type in all cases: binding, human
[1] = test system: IgM antibodies to OspC in sera from patients; assay: Indirect streptavidin ELISA for IgM antibodies against carboxy-terminal OspC deca-peptide (peptide ELISA)
Protocol: Indirect Streptavidin ELISA for IgM Antibodies against Carboxy-terminal OspC Deca-peptide (Peptide ELISA)
Flat-bottom microdilution plates (Maxisorb; Nunc, Roskilde, Denmark) were coated with 100 μl of streptavidin (ZYMED, S. Avidinii) 2.5 μg/ml in citrate buffer (pH 5) and incubated overnight at 4° C. The plates were washed four times a one minute with phosphate buffered saline (PBS) containing 0.5 M NaCl and 0.1% (vol/vol) Tween 20 (pH 7.2), 100 μl of the biotinylated synthetic peptide
(prodiluted in PBS containing 0.37 M NaCl, 0.5% (vol/vol) Tween 20, and 1% (wt/vol) milk powder (pH 7.0)) was added to the wells and the plates were incubated overnight at 4° C. The plates were washed four times a one minute with PBS containing 0.5 M NaCl and 0.1% (vol/vol) Tween 20 (pH 7.2), and 100 μl of test serum diluted 1:200 in PBS containing 0.7 M NaCl, 0.1% (vol/vol) Tween 20, and 1% (wt/vol) milkpowder (pH 7, 2) was added to the wells and incubated for 2 hours at 20° C. on a rocker platform. The plates were washed four times à one minute with PBS containing 0.5 M NaCl and 0.1% (vol/vol) Tween 20 (pH 7.2), and 100 μl of peroxidase conjugated rabbit anti-human IgM (code P215; Dako-patts, Copenhagen, Denmark) diluted 1:1000 in PBS containing 0.5% Tween 20 and 1% milkpowder (pH 7.4) was added to the wells and incubated for 1 h at 20° C. The plates were washed four times à one minute with PBS containing 0.5 M NaCl and 0.1% (vol/vol) Tween 20 (pH 7.2), and 200 μl of the substrate o-phenylenediamine (0.33 mg/ml; Kem-En-Tec, Denmark, tablets of 10 mg) in citrate buffer (pH 5) with 0.04% (vol/vol) H2O2 was added to each well. After 15 minutes protected from light, the enzymatic reaction was stopped by the addition of 50 μl of 3 M H2SO4. The optical density (OD) at 492 nm was read spectrophotometrically on an Immuno Reader, Easy reader EAR 400 AC, SLT Labinstruments, AUSTRIA. Samples were tested in duplicate and retested if the two OD values differed more than 10% from the mean. To eliminate plate-to-plate and day-to-day variations, a reference serum pool based on seven western blot positive sera were included on every plate for construction of a standard dilution curve with a two fold dilution ranging from 1:200 to 1:6400. The OD value of every sample was adjusted to this standard curve. Positive and negative control sera were included on every plate. The positive control sera were diluted 1:200, 1:400 and 1:800 on every plate to check for parallelism between the standard reference curve and the dilution curve of the positive control sera. […]

[2] = test system: IgM in serum from a patient with established neuroborreliosis; assay: Western blot with the decapeptide as serodiagnostic test antigen; conditions: 10 ug peptide on nitrocellulose, NB serum 1:100, preliminary experiments
Protocol: After three further washes in TRIS buffered saline with Tween, antibody reactive peptide was detected with alkaline phosphatase-coupled rabbit anti-human immune globulin M (DAKO, Denmark; cat. no. 337). The conjugate was diluted 1:1000 in TRIS buffered saline with 1% BSA and the NC membrane was incubated with colour substrate (BCIP and NBT; 1:500) for 10 minutes.

[3] = test system: IgG antibodies in Lyme borreliosis sera; assay: IgG antibodies to the C-terminal decapeptide in Lyme borreliosis sera
[4] = test system: IgG reactive with OspC in patient sera; assay: IgG rOspC ELISA combined with IgG flagellum ELISA
[5] = test system: IgM antibodies to OspC in sera from patients; assay: Indirect ELISA for IgM antibodies to full-length and truncated recombinant OspC (rOspC ELISA); conditions: for frequency (%) of positive sera, rOspCfl ELISA: IgM; for diagnostic sensitivity for IgM: set of preliminary tests
Protocol: Indirect ELISA for IgM Antibodies to Full-length and Truncated Recombinant OspC (rOspC ELISA)
Flat-bottom microdilution plates (Maxisorb; Nunc, Roskilde, Denmark) were coated with 100 μl of rOspC diluted in 0.05 M bicarbonate pH 9.6 for 1 hour at 20° C. on a rocker platform and thereafter overnight at 4° C. The optimum coating concentration was defined as the antigen dilution resulting in the highest ratio of the optical density (OD) between a positive and a negative control serum (P/N ratio). The plates were washed four times à one minute with PBS containing 0.5 M NaCL, and 0.1% (vol/vol) Tween 20 (pH 7.2) and unspecific protein binding was blocked with 100 μl 3% (wt/vol) milk powder in PBS for 1 hour. The plates were washed four times à one minute with PBS containing 0.5 M NaCL, and 0.1% (vol/vol) Tween 20 (pH 7.2). 100 μl of serum diluted 1:200 in PBS containing 0.1% (vol/vol) Tween 20, 0.02% NaN3 and 1% (wt/vol) milk powder was added to the wells and incubated for 2 h at 20° C. The plates were washed four times à one minute with PBS containing 0.5 M NaCL, and 0.1% (vol/vol) Tween 20 (pH 7.2) and 100 μl peroxidase conjugated rabbit anti-human immunoglobulin M (IgM) (Dakopats, Copenhagen, Denmark, code P-215) diluted 1:1000 in PBS pH 7.4 with 0.05% (vol/vol) Tween 20 and 1% (wt/vol) milk powder. After the incubation for 1 h at 20° C. the plates were washed four times à one minute with PBS containing 0.5 M NaCL, and 0.1% (vol/vol) Tween 20 (pH 7.2) and 200 μl of the substrate o-phenylenediamine (0.41 mg/ml; Sigma) in citrate buffer (pH 5) with 0.04% (vol/vol) H2O2) was added to each well. After 15 minutes protected from light, the enzymatic reaction was stopped by the addition of 50 μl of 3M H2SO4. The optical density (OD) at 492 nm was read spectrophotometrically (Immuno Reader, Easy reader EAR 400 AC—SLT Labinstruments, AUSTRIA). Samples were tested in duplicate and retested, if the two OD values differed more than 10% from the mean. To eliminate plate-to-plate and day-to-day variations, a reference serum pool based on seven western blot positive sera were included on every plate for construction of a standard dilution curve with a two fold dilution ranging from 1:200 to 1:6400. The OD value of every sample was adjusted to this standard curve. Positive and negative control sera were included on every plate. The positive control sera were diluted 1:200, 1:400 and 1:800 on every plate to check for parallelism between the standard reference curve and the dilution curve of the positive control sera.
The diagnostic cutoff OD was adjusted to be 98% specific for an IgM assay on the basis of serum samples from 100 healthy danish blood donors, and was 0.230 for the IgM assay.
In a preliminary setup, rOspCt was used in the above-described rOspC ELISA. Sera from 47 patients with EM, 50 with NB, 30 with ACA and 29 with syphilis were tested against rOspCt.
The capability of an immunological agent according to the present invention to react with sera from patients in various stages of Lyme borreliosis was evaluated against that of recombinant OspC derived from B. garinii and against conventional flagellum ELISAs (performed as described in Hansen K. et al. (1991) and Hansen K. et al. (1988)). These flagellum assays (testing for IgM and IgG antibodies to native B. burgdorferi flagellum) are commercially available, a μ-capture ELISA (DAKO, Denmark code K006), and an indirect IgG ELISA (DAKO, Denmark code K416). Both assays use flagella purified from strain DK1 belonging to the genospecies of B. afzelii. The ELISAs were performed according to the instructions of the manufacturer, and the results were expressed as optical density (OD) values. In both assays the diagnostic cut-off level was adjusted to a specificity of 98% based on the examination of 100 blood donors.

With “6-aminohexanoic acid-Pro-Val-Val-Ala-Glu-Ser-Pro-Lys-Lys-Pro [Peptide]” the “OD titer compared with the rOspCfl ELISA” value ([1]; EM and NB sera, IgM, FIGS. 1-4) was “significantly higher”, the “frequency (%) of positive sera, Peptide ELISA” value (from here on “frequency (%) … Peptide ELISA”) ([1]; EM sera (n = 80), IgM, cutoff OD 0.460) was “n = 26 (32.5%)” and the “Peptide IgM negative and Flagellum IgM negative” value ([1]; EM, n = 80) was “n = 44 (55.00%)”. For the same molecule, the “Peptide IgM negative and Flagellum IgM positive” value ([1]; EM, n = 80) was “n = 10 (12.50)”, the “Peptide IgM positive and Flagellum IgM negative” value ([1]; EM, n = 80) was “n = 6 (7.50%)” and the “Peptide IgM positive and Flagellum IgM positive” value ([1]; EM, n = 80) was “n = 20 (25.00%)”. For the same molecule, the “Peptide IgM negative” value ([1]; EM, n = 80, all sera) was “n = 54 (67.5%)”, the “Peptide IgM positive” value ([1]; EM, n = 80, all sera) was “n = 26 (32.5%)” and the “frequency (%) … Peptide ELISA” value ([1]; Early Lyme borreliosis (EM and NB) sera (n = 181), IgM) was “n = 72 (39.8%)”. The “frequency (%) … Peptide ELISA” value ([1]; NB sera (n = 101), IgM) was “n = 46 (45.5%)”, the “Decapeptide IgM negative and Flagellum IgM negative” value ([1]; NB, n = 101) was “n = 25 (24.75%)” and the “Decapeptide IgM negative and Flagellum IgM positive” value ([1]; NB, n = 101) was “n = 30 (29.70%)”. For the same molecule, the “Decapeptide IgM positive and Flagellum IgM negative” value ([1]; NB, n = 101) was “n = 12 (11.88%)”, the “Decapeptide IgM positive and Flagellum IgM positive” value ([1]; NB, n = 101) was “n = 33 (32.67%)” and the “Decapeptide IgM negative” value ([1]; NB, n = 101, all sera) was “n = 55 (54.5%)”. The “Decapeptide IgM positive” value ([1]; NB, n = 101, all sera) was “n = 46 (45.5%)”, the “sensitivity of the peptide ELISA relative to the rOspCfl ELISA” value ([1]; detecting early Lyme borreliosis (stage 1 and 2)) was “approximately 86%” and the “increase of overall sensitivity for IgM when adding peptide ELISA results to flagellum ELISA results” value ([1]; first stage (EM)) was 7.5%. For the same molecule, the “accuracy (ROC plot) compared with the rOspCfl ELISA” value ([1]; patients suffering from NB, FIG. 6) was “more accurate” and the “increase of overall sensitivity for IgM when adding peptide ELISA results to flagellum ELISA results” value ([1]; second stage (NB)) was 12%.

For “NH2-Pro-Val-Val-Ala-Glu-Ser-Pro-Lys-Lys-Pro-COOH (H-PVVAESPKKP-OH; listed as Borrelia garinii) [SEQ ID NO: 1, C-terminal decapeptide of B. burgdorferi sensu lato OspC]”, the “usability as serodiagnostic test antigen in western blot” value [2] was “can be used as a serodiagnostic test antigen” and the “Lyme borreliosis sera comprising IgG antibodies to the peptide” value [3] was “only few”.

B1: rOspCfl: full-length recombinant OspC from Borrelia garinii strain DK6 (SEQ ID NO: 3), six-His fusion protein (protein, listed as Borrelia garinii)
chain: MKKNTLSAILMTLFLFISCNNSGGDSASTNPDESAKGPNLTVISKKITDSNAFLLAVKEVEALLSSIDELSKAIGKKIKNDGTLDNEANRNESLIAGAYEISKLITQKLSVLNSEELKEKIKEAKDCSEKFTTKLKDSHAELGIQSVQDDNAKKAILKTHGTKDKGAKELEELFKSLESLSKAAQAALTNSVKELTNPVVAESPKKP
modifications: six-His tag
With B1 the “improvement on adding IgG rOspC ELISA results to IgG flagellum ELISA results” value [4] was “no significant improvement”, the “frequency (%) of positive sera, rOspCfl ELISA” value (from here on “frequency (%) … rOspCfl ELISA”) ([5]; EM sera (n = 80), B. garinii rOspCfl, cutoff OD 0.230) was “n = 45 (43.8%)” and the “rOspCfl IgM negative and Flagellum IgM negative” value ([5]; EM, n = 80) was “n = 38 (47.50%)”. The “rOspCfl IgM negative and Flagellum IgM positive” value ([5]; EM, n = 80) was “n = 7 (8.75%)”, the “rOspCfl IgM positive and Flagellum IgM negative” value ([5]; EM, n = 80) was “n = 12 (15.00%)” and the “rOspCfl IgM positive and Flagellum IgM positive” value ([5]; EM, n = 80) was “n = 23 (28.75%)”. For the same molecule, the “rOspCfl IgM negative” value ([5]; EM, n = 80, all sera) was “n = 45 (56.25%)”, the “rOspCfl IgM positive” value ([5]; EM, n = 80, all sera) was “n = 35 (43.75%)” and the “frequency (%) … rOspCfl ELISA” value ([5]; Early Lyme borreliosis (EM and NB) sera (n = 181)) was “n = 94 (46.4%)”. For the same molecule, the “frequency (%) … rOspCfl ELISA” value ([5]; NB sera (n = 101), B. garinii rOspCfl) was “n = 49 (48.5%)”, the “rOspCfl IgM negative and Flagellum IgM negative” value ([5]; NB, n = 101) was “n = 25 (24.75%)” and the “rOspCfl IgM negative and Flagellum IgM positive” value ([5]; NB, n = 101) was “n = 26 (25.74%)”. For the same molecule, the “rOspCfl IgM positive and Flagellum IgM negative” value ([5]; NB, n = 101) was “n = 12 (11.88%)”, the “rOspCfl IgM positive and Flagellum IgM positive” value ([5]; NB, n = 101) was “n = 37 (36.63%)” and the “rOspCfl IgM negative” value ([5]; NB, n = 101, all sera) was “n = 52 (51.5%)”. The “rOspCfl IgM positive” value ([5]; NB, n = 101, all sera) was “n = 49 (48.5%)”, the “increase of overall diagnostic sensitivity for IgM when adding rOspCfl ELISA results to flagellum ELISA results” value ([5]; first stage of Lyme borreliosis (EM)) was 15% and the “diagnostic sensitivity for IgM” value ([5]; first stage of Lyme borreliosis) was 44%. For the same molecule, the “increase of overall diagnostic sensitivity for IgM when adding rOspCfl ELISA results to flagellum ELISA results” value ([5]; second stage of Lyme borreliosis (NB)) was 12% and the “diagnostic sensitivity for IgM” value ([5]; second stage of Lyme borreliosis) was 48%.

From patent US6716574B2, “Osp-C derived peptide fragments” (Dako A/S, priority 1996, dated 2004)
